In PubChem BioAssay (NCI):
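Compound exposure: 48 hours, 5 concentrations, 96-well plates. The concentration for 50% growth inhibition is given as GI50. At the TGI there is no net growth.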

Assays:
Experiment in all cases: NCI anticancer screen, dose series, 48 h
786-0 renal = system: 786-0 renal
CCRF-CEM leukemia = system: CCRF-CEM leukemia
DU-145 prostate = system: DU-145 prostate
IGROV1 ovarian = system: IGROV1 ovarian
NCI-H226 lung = system: NCI-H226 lung
NCI-H460 lung = system: NCI-H460 lung
NCI-H522 lung = system: NCI-H522 lung
SNB-19 CNS = system: SNB-19 CNS
U251 CNS = system: U251 CNS
UACC-257 melanoma = system: UACC-257 melanoma

Compound | GI50 (786-0 renal) [nM] | TGI (786-0 renal) [µM] | GI50 (CCRF-CEM leukemia) [nM] | TGI (CCRF-CEM leukemia) [µM] | GI50 (DU-145 prostate) [nM] | TGI (DU-145 prostate) [µM] | GI50 (IGROV1 ovarian) [nM] | TGI (IGROV1 ovarian) [µM] | GI50 (NCI-H226 lung) [µM] | TGI (NCI-H226 lung) [µM] | GI50 (NCI-H460 lung) [nM] | TGI (NCI-H460 lung) [µM] | GI50 (NCI-H522 lung) [nM] | TGI (NCI-H522 lung) [µM] | GI50 (SNB-19 CNS) [µM] | TGI (SNB-19 CNS) [µM] | GI50 (U251 CNS) [nM] | TGI (U251 CNS) [µM] | GI50 (UACC-257 melanoma) [nM] | TGI (UACC-257 melanoma) [µM]
COc1c(OC[C@H](O)CN2CCOCC2)ccc2c3n(c(=NC(=O)c4cccnc4C)nc12)CCN3 | 399 | > 50 | 1670 | > 50 | 6720 | > 50 | 60 | 0.343 | 15.4 | > 50 | 528 | > 50 | > 50000 | > 50 | 5.1 | > 50 | 2580 | > 50 | 1110 | > 50
COc1cccc2c1C(=O)c1c(O)c3c(c(O)c1C2=O)C[C@](O)(C(=O)CO)C[C@H]3O[C@@H]1C[C@@H](NC(=O)CCCCCN(C)C2(c3ccc(F)cc3)CC3CCC2C3)[C@H](O)[C@@H](C)O1 (stereo not given in full) | 820 | 1.61 | 1130 | 3.92 | 1130 | 4.24 | 6590 | 14.8 | 6.68 | 16.9 | 555 | 1.37 | 707 | 1.57 | 6.48 | 14.8 | 739 | 1.49 | 931 | 1.73
CC(=O)OC12C=CC(=O)N1c1ccccc1C(=O)O2 (stereo not given) | – | > 100 | – | > 100 | > 100000 | > 100 | – | > 100 | – | > 100 | – | > 100 | – | > 100 | – | > 100 | – | > 100 | – | > 100
CCSc1ncnc2c1ncn2C1OC(CO)C(O)C1O (stereo not given) | 449 | > 100 | 146 | > 100 | 129 | 32.5 | 442 | 18.1 | 0.845 | > 100 | 600 | > 100 | 648 | > 100 | 8.24 | > 100 | 6390 | > 100 | > 19800 | > 100
NCCNc1c2c(c(NCCN)c3[nH]ccc13)C(=O)c1ccccc1C2=O | 224 | 1.04 | < 10 | 0.163 | 694 | 2.4 | 1200 | > 100 | 0.198 | 0.896 | 766 | 2.88 | 1900 | > 100 | 0.206 | 1.12 | – | 0.842 | 2630 | 7.5
Cc1ccc(NC(=O)CC2CC2)cc1-c1ccc(C(=O)NCC2CC2)cc1 | > 25000 | > 25 | > 25000 | > 25 | > 25000 | > 25 | > 25000 | > 25 | > 25 | > 25 | > 25000 | > 25 | > 25000 | > 25 | > 25 | > 25 | > 25000 | > 25 | > 25000 | > 25
CN(C)C(n1cc2c(c1)-c1ccc(Cl)cc1C(c1ccccc1F)=NC2)n1cc2c(c1)-c1ccc(Cl)cc1C(c1ccccc1F)=NC2 | – | > 100 | – | > 100 | – | > 100 | – | > 100 | – | > 100 | – | > 100 | – | > 100 | – | > 100 | – | > 100 | – | > 100
